Data: patent publication US20070265164A1, “Active Substances for Increasing Pathogenic Defense in Plants and Methods for the Detection Thereof” (Bayer Cropscience GmbH, priority 2004, published 2007)

Tests used:
Assay type in all cases: in vivo
Design in all cases: fold induction: dose or concentration left out as unconfirmed
[1] = system: Contig9556_at, 12-oxophytodienoate reductase 3; assay: GEP, barley DNA chip, probe set 1.8; settings: Hordeum vulgare, topical; barley leaves 6 h after spray application; rates of Table 1 (S7 500); median induction factor vs control; read-out: Expression value, 1.8 Contig9556_at
Description: (§1) Barley plants (cv. Baronesse) were grown in compost-filled pots (diameter: 10 cm) for 10 days in a controlled-environment cabinet under defined light, humidity and temperature conditions (white light, 70% atmospheric humidity, 24° C.). At the time of spray application, the seedlings were approximately 15 cm in size. The test substances selected in this example were molecules which differ markedly in their structure and which have a well documented pronounced safener effect, and other molecules which are known from the literature to have an effect on plant stress and pathogen tolerance (Table 1). The substances were prepared as stock solutions in DMSO (dimethyl sulfoxide) at c=10 mg/ml). This was used for preparing dilutions in water supplemented with 0.2% Agrotin (comprises polyvinyl alcohol, silicones, polysaccharides and pH regulators, manufacturer: Bayer CropScience AG, Monheim, Germany), as wetter, to give the application rates shown in the table. The amount of liquid for the spray application was 800 μl per pot, corresponding to 800 l/ha. For each 800 μl of spray mixture, 16 μl of EC premix: diacetone alcohol=1:6 were additionally added as formulation auxiliaries. The substances listed in Table 1 were applied to the leaves by means of a pneumatic spray pistol. Each substance was sprayed as 2 dosages, and all experiments were carried out as replicates (2 pots per substance). Sprayings with blank formulation without active ingredient were carried out as controls. After 6 hours, the leaves were harvested, frozen in liquid nitrogen and stored at −80° C. until further use. The labeled RNA probes for the DNA chip hybridization were prepared as described in the protocols (Expression Analysis, Technical Manual) from Affymetrix (Affymetrix Inc., 3380 Central Expressway, Santa Clara, Calif., USA). First, total RNA was isolated from in each case 500 mg of the harvested leaves. In each case 10 μg of total RNA was used for the first-strand and second-strand cDNA synthesis. The cDNA was amplified with T7 polymerase and simultaneously labeled with biotin-UTP. In each case, 20 μg of this biotinylated cDNA was employed for the hybridization of the barley genome array (Gene Chip Barleyl, order No.: 511012) from Affymetrix. This DNA microarray comprises DNA sequences of 22 840 genes which are composed of a total of 400 000 EST sequences. Thereafter, the DNA microarrays were washed in the Affymetrix Fluidics Station, stained with streptavidin/phycoerythrin (Molecular Probes, P/N S-866) and scanned with the matching Agilent Laser Scanner (Agilent Gene Array Scanner). The fluorescent data obtained were analyzed with the software Microarray Suite 5 from Affymetrix. After the quality had been checked, all DNA chip analyses were stored in a database. To determine the relative expression values for genes (induction factors, repression factors), test and control chips were compared with each other, and the scoring function set by the Affymetrix software was used as the basis. The 2 biological replications of one experiment were compared in each case with 2 control chips (blank formulation), and the 4 expression values obtained for each gene were used for calculating the median. These medians are shown in the results tables as induction factors. Similarity comparisons of expression profiles from different experiments and cluster analyses were carried out using the software GeneMaths 1.5 from Applied Maths (Applied Maths, Keistraat 120, 9830 Sint-Martens-Latem, Belgium).
(§2) Gene groups from specific metabolic pathways and signal transduction chains were put together by key word search in the annotations, of the genes, which were also provided by Affymetrix, and by Blast analyses (homology comparisons) of the DNA target sequences, i.e. of the positive sequence (identified on the basis of a modified expression profile) identified on the DNA chip, using gene sequences from other organisms, preferably plant organisms, with characterized functions. […]

[2] = system: HD07M22r_s_at, Proteinase-Inhibitor (pir S71555, barley); assay: GEP, barley DNA chip, probe set 2.4; settings: Hordeum vulgare, topical; barley leaves 6 h after spray application; rates of Table 1 (S7 500); median induction factor vs control; read-out: Expression value, 2.4 HD07M22r_s_at
Description: as §1, §2

[3] = system: Contig2088_s_at, Bowman-Birk type trypsin inhibitor; assay: GEP, barley DNA chip, probe set 2.1; settings: Hordeum vulgare, topical; barley leaves 6 h after spray application; rates of Table 1 (S7 500); median induction factor vs control; read-out: Expression value, 2.1 Contig2088_s_at
Description: as §1, §2

[4] = system: Contig3097_at, Allene oxide synthase; assay: GEP, barley DNA chip, probe set 1.3; settings: Hordeum vulgare, topical; barley leaves 6 h after spray application; rates of Table 1 (S7 500); median induction factor vs control; read-out: Expression value, 1.3 Contig3097_at
Description: as §1, §2

[5] = system: Contig2337_at, 12-oxophytodienoate reductase (OPR1); assay: GEP, barley DNA chip, probe set 1.20; settings: Hordeum vulgare, topical; barley leaves 6 h after spray application; rates of Table 1 (S7 500); median induction factor vs control; read-out: Expression value, 1.20 Contig2337_at
Description: as §1, §2

[6] = system: Contig5607_s_at, Pathogen-related protein (PirT06168); assay: GEP, barley DNA chip, probe set 4.3; settings: Hordeum vulgare, topical; barley leaves 6 h after spray application; rates of Table 1 (S7 500); median induction factor vs control; read-out: Expression value, 4.3 Contig5607_s_at
Description: as §1, §2

[7] = system: Contig2631_at, Lipase-like Protein (jasmonic acid biosynthesis gene); assay: Gene expression profiling (GEP), barley DNA chip, probe set 1.1; settings: Hordeum vulgare; barley leaves 6 h after spray application; rates of Table 1 (S7 500); median induction factor vs control
Description: as §1, §2

[8] = system: HV_Ceb0020D05r2_s_at, Allene oxide cyclase; assay: GEP, barley DNA chip, probe set 1.6; settings: Hordeum vulgare, topical; barley leaves 6 h after spray application; rates of Table 1 (S7 500); median induction factor vs control; read-out: Expression value, 1.6 HV_Ceb0020 D05r2_s_at
Description: as §1, §2

[9] = system: Contig5146_at, Probable 12-oxophytodienoate reductase (EC 1.3.1.42); assay: GEP, barley DNA chip, probe set 1.4; settings: Hordeum vulgare, topical; barley leaves 6 h after spray application; rates of Table 1 (S7 500); median induction factor vs control; read-out: Expression value, 1.4 Contig5146_at
Description: as §1, §2

[10] = system: Contig2990_at, Chitinase (EC 3.2.1.14); assay: GEP, barley DNA chip, probe set 5.1; settings: Hordeum vulgare, topical; barley leaves 6 h after spray application; rates of Table 1 (S7 500); median induction factor vs control; read-out: Expression value, 5.1 Contig2990_at
Description: as §1, §2

[11] = system: Contig6611_at, Similar to lipases; assay: GEP, barley DNA chip, probe set 1.12; settings: Hordeum vulgare, topical; barley leaves 6 h after spray application; rates of Table 1 (S7 500); median induction factor vs control; read-out: Expression value, 1.12 Contig6611_at
Description: as §1, §2

[12] = system: Contig2118_at, Peroxidase (EC 1.11.1.7), pathogen-induced; assay: GEP, barley DNA chip, probe set 4.1; settings: Hordeum vulgare, topical; barley leaves 6 h after spray application; rates of Table 1 (S7 500); median induction factor vs control; read-out: Expression value, 4.1 Contig2118_at
Description: as §1, §2

O=C(O)c1cc(Cl)cc(Cl)c1O [S10]
fold induction [1]: 1 | fold induction [2]: 1 | fold induction [3]: 2.41 | fold induction [4]: 1 | fold induction [5]: 1 | fold induction [6]: 1 | fold induction [7]: 1 | fold induction [8]: 1 | fold induction [9]: 1 | fold induction [10]: 1 | fold induction [11]: 2.38 | fold induction [12]: 1
